Laboratory results from patent US6015560A, “Antibody recognizing endothelial cell ligand for leukocyte CR3” (priority 1995, dated 2000).

Legend:
[1] = system: human umbilical vein endothelial cells; test: Adherence of neutrophils to cultured (TNF-stimulated) endothelial cells; type: cell-based
Procedure: Human umbilical vein endothelial cells (HUVEC, first passage, Clonetics, San Diego, Calif.) were subcultured at confluence into Terasaki tissue culture wells. After 24 hours, confluent monolayers were used for adherence assays. Monolayers were stimulated with 10 ng/ml TNF alpha (Boehringer Mannheim, Indianapolis, Ind.) at 37° C. for four hours. 30 μl of human neutrophils (10^6 /ml) were labeled with fluorescein by the method of Lo et al. (1991), J. Exp. Med. 173 1493-1500, and preincubated for 15 minutes at 37° C. with 20 μl of peptides (0.5 mM in HAP) or HAP (phosphate buffered saline containing 0.5 mg/ml human serum albumin, 3 mM glucose, and 0.3 U/ml aprotinin) as a control buffer. For some experiments, endothelial cells were pretreated from 10 minutes with Factor X or antibodies against Factor X receptor (EPR-1; Altieri et al. (1990), J. Immunol. 145, 246-253) 12H1 and 9D4 (obtained from Dr. D. Altieri, Scripps Research Institute, Lajolla, Calif.) and then washed. Neutrophils were allowed to adhere to the monolayer for 15 mins. at 37° C. and unbound cells were removed by submersion of the plate in PBS buffer. The number of adherent neutrophils was counted in a 40× microscope field and expressed as a percentage of adherence in control wells with neutrophils treated with HAP buffer alone. The mAb IB4 against CD18 (50 μg/ml; Merck Inc., Rahway, N.J.) served as a positive control.
(§1) The procedures for determining the neutrophil adherence to cultured endothelial cells and the transendothelial migration of neutrophils were identical with those of Example 9. Control values were the same as those shown in Example 9.

neutrophils = test: Transendothelial migration of neutrophils; type: cell-based, human
Procedure: Transendothelial migration of neutrophils was studied based on a method described by Muller et al. (1992), J. Exp. Med. 176: 819-828. Briefly, human neutrophils suspended in ice-cold Hanks balanced salt solution (HBSS) containing Ca^++ and Mg^++ (Sigma) were fluoresceinated by adding 3.3 μl/ml 5-(and 6-)carboxyfluorescein diacetate, succinimidyl ester (CFSE, Molecular Probes Inc., Oreg.). After incubation for 30 mins. on ice, neutrophils were washed twice in cold HBSS with Ca^++ and Mg^++ and resuspended in cold Medium 199 (M199, Sigma) to a final concentration of 10^6 /ml. Human umbilical vein endothelial cells were subcultured at confluence into 96-well tissue culture plates (Becton Dickinson Labware, Lincoln Park, N.J.) that were coated with hydrated collagen gel (Vitrogen; Collagen Corporation, Palo Alto, Calif.) and fibronectin. Endothelial cells were stimulated with 10 ng/ml TNF-alpha for 4 hours and washed three times with warm M199. Neutrophils (10^6 /ml) were preincubated with 0.01 mM of peptides or with 1 μM of native FHA in M199 for 5 mins. on ice before they were added in 100 μl aliquots to the endothelial cells. For positive control, neutrophils were pre-incubated with 25 μg/ml anti-CD18 mAb IB4. For negative control, neutrophils were treated with 25 μg/ml mAb W6/32 against HLA class I antigen (Dako, Carpinteria, Calif.). The cells were incubated for 1 hour at 37° C., 5% CO2. To terminate transmigration, the supernatant fluid was aspirated and the wells were filled with warm 1 mM EGTA (Sigma) in HBSS without Ca and Mg. The plates were covered with plate sealers (Dynatech, Alexandria, Va.) and centrifuged in an inverted position at 250 g for 3 mins. at room temperature. To remove residual non-transmigrated neutrophils from the endothelial cells, monolayers were washed twice with 200 μl of warm Hanks solution without Ca and Mg. Fluorescence was quantitated using a fluorescence counter (Millipore Cytofluor™ 2300). The percentage of transmigrated neutrophils was determined by comparing the amount of fluorescence of test wells with that measured in collagen- and fibronectin-coated wells without endothelial cells. […] Percent inhibition of transendothelial migration of neutrophils was calculated by comparing the number of transmigrated cells in wells containing neutrophils treated with peptide to neutrophils treated with M199 alone and arbitrarily set at 100% transendothelial migration (TEM).
as §1

leukocytes in CSF = test: Rabbit meningitis model: leukocyte migration into CSF; type: in vivo
Procedure: (§2) The rabbit model was performed according to an established protocol. Specific pathogen free, New Zealand white rabbits (2 kg; Hare Marland, Nutley, N.J.) were anesthetized with valium (2.5 mg/kg, subcutaneously, Hoffman-LaRoche, Nutley, N.J.), ketamine (35 mg/kg, intramuscularly, Aveco, Fort Dodge, Iowa) and xylazine (5 mg/kg, intramuscularly, Miles Laboratories, Shawnee, Kans.) and a helmet of dental acrylic was affixed to the calvarium. Twenty four hours later, the rabbits were anesthetized with ethyl carbamate (1.75 g/kg; Aldrich Chemical Co., Milwaukee, Wis.) and pentobarbital (15 mg/kg; Abbott Laboratories, Abbott Park, Ill.) and placed in a stereotaxic frame. A spinal needle was introduced into the cisterna magna and 300 μl of CSF was withdrawn. The animals were challenged intracisternally with 10^8 heat killed, unencapsulated pneumococcus strain R6 introduced in 200 μl of saline (time 0). One hour later, animals were treated with peptides dissolved in 1 ml of saline by intravenous injection into the right marginal ear vein. The concentration of FHA was 0.1 μM and that of the FHA Ia, Factor X II, and scrambled FHA II peptides was 10 μM. For the acetyl-FHA II, acetyl/amide-FHA II, dimer of FHA II and trimer of FHA II peptides, the concentration was 10^-3 μM. The concentration of FHA II is given in the results section. Samples of CSF were withdrawn at hourly intervals after pneumococcal inoculation and leukocyte density was measured using a cell counter (Coulter Electronics Inc., Hialeah, Fla.). CSF samples were centrifuged at 10,000×g for 5 minutes and the supernatant was stored at -70° C. until assayed for protein concentration using the bicinchoninic acid method (BCA Kit, Pierce Chemical Co., Rockford, Ill.) and for lactate concentration (Lactate Detection Kit, Sigma, St. Louis, Mo.). Statistically significant differences between treatments were determined by a one way analysis of variance test.
The anti-inflammatory effects of the administered peptides were assessed in the rabbit model for meningitis by the procedures described in Example 10. The animals received 1 ml of 1 uM peptide intravenously. In a slight departure from the protocol described in Example 10, samples of blood were drawn from the left marginal ear vein 30 minutes after the administration of the peptides to determine peripheral leukocyte concentrations.

blood brain barrier = test: Rabbit meningitis model: CSF protein and lactate (blood brain barrier permeability); type: in vivo
Procedure: as §2
Loss of barrier function of the cerebral capillary endothelium during inflammation is reflected by an influx of serum proteins into the CSF. […] To examine if the peptides were able to ameliorate these measures of cerebral injury, CSF protein and lactate concentrations were measured hourly in peptide-treated and control animals (Table 10).
Leukocyte migration into the CSF in bacterial meningitis is associated with loss of barrier function of the cerebral capillary endothelium, resulting in influx of serum proteins into the CSF. To determine whether FHA peptides were able to prevent this leukocyte-dependent injury, protein concentrations in the CSF were measured throughout the course of inflammation in peptide-treated and control animals.

[2] = Peripheral white blood cells in rats; details: rat, in vivo
Procedure: (§3) Three hours after LOS inoculation, 5 μCi of ^125 I-radiolabelled albumin in 50 μl normal saline was administered intravenously. One hour later, CSF was collected via intracisternal puncture and blood samples were collected via intracardiac puncture. CSF leukocytosis was determined by manually counting white blood cells using a hemacytometer, and blood-brain barrier permeability was determined as the percent of radioactivity in whole blood that was present in the CSF. Blood samples were obtained immediately prior to inoculation, immediately prior to treatment, and at 4 hours post-inoculation for determination of peripheral white blood cell concentrations.

cerebral infarct = test: Rat transient middle cerebral artery occlusion: infarct volume; type: in vivo; details: 2 hours MCAo; 50 nmol i.v. plus 150 nmol i.p. boluses; 48 hours
blood-brain barrier = test: Rat meningitis model (LOS): blood-brain barrier permeability; type: in vivo
Procedure: Briefly, anesthetized female Wistar rats were placed under a micromanipulator and inoculated intracisternally with a 25 gauge needle. After removal of 50 μl of CSF (without visible blood contamination), rats were inoculated intracisternally with 50 μl (20 ng) of LOS using a 1 ml syringe with a 25 gauge needle. Ten to fifteen minutes after inoculation with LOS, the rats were treated by intravenous administration of the test substance: a solution of an FHA peptide in PBS, a solution of a control peptide in PBS, or an equal volume of PBS alone.
as §3

Sequence: RGDPHQGVLAQGDIIMDAKG [FHA Ca]
- concentration at which loss of activity (≤20% inhibition) occurred [1]: 1 µM
- inhibition of neutrophil adherence to endothelial cells ([1]; 0.5 mM): 47±7%
- maximal inhibition of neutrophil attachment ([1]; concentration dependence): ~ 50%
- concentration required for inhibition of transendothelial migration similar to native FHA (82%) (neutrophils): 10 µM
- leukocyte migration into CSF (in words) (leukocytes in CSF; 0.1 μM peptide i.v.): significantly reduced leukocyte migration into the CSF
- leukocyte density in CSF (leukocytes in CSF; 7 hours, 1 ml of 1 uM peptide i.v.): 2137±1498 cells/μl CSF
- Total protein in CSF (blood brain barrier; 6 hours): 1.18 ± 0.39 mg/mL
- Total protein in CSF (blood brain barrier; 7 hours): 1.69 ± 0.41 mg/mL
- neutropenia [2]: No neutropenia
- infarct volume (cerebral infarct): approximately 25 % of the hemisphere
- BBB permeability (blood-brain barrier; 100 nmol i.v., radioactivity in CSF of that in whole blood): 3.0%
- inhibition of blood-brain barrier permeability (in words) (blood-brain barrier; rat, in vivo): dose dependent
